In the CheMixHub viscosity set:

Experiment: xn = mol fraction of the nth substance listed

CC(=O)Oc1ccccc1C(=O)O + CC(C)O
viscosity [mPa·s], 101 kPa
Conditions | x1 = 0.00057 | x1 = 0.000763 | x1 = 0.000955 | x1 = 0.00115 | x1 = 0.00134 | x1 = 0.00153 | x1 = 0.00191
293.15 K | 2.382 | 2.382 | 2.383 | 2.384 | 2.385 | 2.386 | 2.389
298.15 K | 2.045 | 2.045 | 2.046 | 2.046 | 2.047 | 2.048 | 2.049
303.15 K | 1.763 | 1.764 | 1.764 | 1.765 | 1.766 | 1.767 | 1.768
308.15 K | 1.524 | 1.524 | 1.525 | 1.525 | 1.525 | 1.526 | 1.526
310.15 K | 1.437 | 1.438 | 1.438 | 1.438 | 1.439 | 1.439 | 1.44
313.15 K | 1.392 | 1.392 | 1.393 | 1.393 | 1.394 | 1.394 | 1.395

CC(C)=O + CC(C)O
298.15 K, 101 kPa
Conditions | viscosity [mPa·s]
x2 = 0.152 | 0.347
x2 = 0.161 | 0.349
x2 = 0.292 | 0.389
x2 = 0.302 | 0.395
x2 = 0.452 | 0.486
x2 = 0.486 | 0.507
x2 = 0.488 | 0.513
x2 = 0.661 | 0.703
x2 = 0.812 | 1.071
x2 = 0.849 | 1.187

CC1COC(=O)O1 (stereo not given) + CC(C)O
viscosity [mPa·s], 101 kPa
Conditions | x1 = 0.0614 | x1 = 0.1283 | x1 = 0.2015 | x1 = 0.2818 | x1 = 0.3706 | x1 = 0.469 | x1 = 0.5787 | x1 = 0.7019 | x1 = 0.8412
298.15 K | 1.84 | 1.74 | 1.68 | 1.64 | 1.64 | 1.65 | 1.7 | 1.8 | 2.04
303.15 K | 1.6 | 1.53 | 1.46 | 1.44 | 1.45 | 1.48 | 1.54 | 1.65 | 1.85
308.15 K | 1.44 | 1.37 | 1.31 | 1.29 | 1.29 | 1.32 | 1.39 | 1.49 | 1.68

CCCc1ccccc1 + CC(CC(C)(C)C)CC(C)(C)C
viscosity [mPa·s], 102 kPa
Conditions | x1 = 0.101 | x1 = 0.2003 | x1 = 0.3007 | x1 = 0.4005 | x1 = 0.498 | x1 = 0.6 | x1 = 0.7 | x1 = 0.8001 | x1 = 0.9002
293.15 K | 1.24 | 1.16 | 1.09 | 1.03 | 0.983 | 0.939 | 0.905 | 0.877 | 0.861
303.15 K | 1.04 | 0.986 | 0.929 | 0.883 | 0.847 | 0.815 | 0.787 | 0.762 | 0.748
313.15 K | 0.901 | 0.852 | 0.809 | 0.773 | 0.744 | 0.712 | 0.689 | 0.666 | 0.654
323.15 K | 0.785 | 0.75 | 0.713 | 0.685 | 0.656 | 0.629 | 0.609 | 0.589 | 0.578
